Measurements: patent US11547708B2, “Compositions and methods to protect mammalian tissue against cold and other metabolic stresses” (THE UNITED STATES OF AMERICA, AS REPRESENTED BY THE …, priority 2017, dated 2023)
Where a SMILES comes first, the peptide text is derived from it. The star is where a group is joined. Cbz = O=C(OCc1ccccc1)*

What was measured:
Type in all cases: cell-based
human iPSC-neurons [1] = test: Detection of protein aggregates on neuronal microtubules; conditions: 4° C. for 4 h, pre-incubation
Description: After treatments, cultured neurons were fixed with 4% paraformaldehyde for 10 minutes and then permeabilized and washed with 0.1% Triton X-100 in phosphate buffered saline. Protein aggregates were visualized by a dye that intercalates into the denatured and aggregated proteins and becomes fluorescent (Proteostat aggresome detection kit, Enzo, Farmingdale, N.Y.; see Table 2) (Shen, 2011). For accumulation of protein aggregates on the neuronal microtubules, cells were stained with TUBB3 antibody and the protein aggregate dye, and images (188.94 μm×188.94 μm) were taken. In each image, the number of protein aggregates residing on the microtubules was counted and divided by the total length of the TUBB3+ microtubule paths.

human iPSC-neurons [2] = test: Live cell imaging of lysosomes using Magic Red and DND-26 (lysosomal membrane permeabilization, LMP); conditions: 4-h at 4° C.
Description: GS and Human iPSC-derived neuronal cultures were prepared in duplicate and incubated with hibernate-medium containing Magic Red (1:1000; ImmunoChemistry Technologies, Bloomington, Minn.) at 37° C. for 25 min, followed by the addition of LysoTracker Green DND-26 (50 nM; Thermo Fisher, Waltham, Mass.; see Table 1) for 5 min. The dye-containing medium was then replaced with fresh hibernate-medium, and one group of cultures was incubated at 4° C. for 1, 4 or 16 h, while the other group remained at 37° C. serving as normal controls. The cold-exposed group was subjected to confocal imaging at various temperatures (10° C., room temperature, or 37° C.), while the control group was imaged at either room temperature or 37° C. […] Magic Red becomes fluorescent after being cleaved by the lysosomal protease cathepsin B, while DND-26 is an acidotropic probe that accumulates in the acidic lysosomal vesicles. When LMP occurs, Magic Red and DND-26 signals become diffused within the cytoplasm of the affected cells. It was determined that cells have LMP if they contain a single Magic Red-stained particle of diameter >5 μm, which is about the size of the neuronal cell nucleus.

human iPSC-neurons [3] = test: Evaluation of neuronal microtubule stability in response to cold (tubulin immunofluorescence, TUBB3+ microtubule tracing)
Description: The temperature-dependent experiments in this study were performed at ambient CO2 concentration, which required the use of hibernate-medium (Table 2) to maintain the physiological pH. Experiments were conducted by first incubating cultured neurons (human iPSC-derived, GS iPSC-derived, GS primary, or rat primary cultures) in hibernate-medium for 30 min at room temperature. During this time (pre-incubation), drug treatments (see Other Reagents, Table 1) were introduced to test cold resistance and microtubule stability. The cell culture dishes were then kept in an ambient 37° C. incubator, or in a 4° C. refrigerator. […] The pH of hibernate-medium was stable and maintained the pH between 7.0 and 7.4 even after 16-h incubation at 4° C.
Cultured neurons or rat retinal explants with or without treatments were fixed with 4% paraformaldehyde, permeabilized and washed with 0.1% Triton X-100 in phosphate buffered saline, and stained by antibodies against TUBB3. TUBB3+ microtubule paths in images of 188.94×188.94 μm^2 from human iPSC-derived neuronal cultures and images of 67.48×67.48 μm^2 from rat whole-mount retinas were traced with the ‘Simple Neurite Tracer’ plugin in ImageJ.

[4] = system: rat retinal ganglion cells (RGCs); test: Multielectrode array (MEA) recordings of RGC activity in cold-exposed rat retina explants; conditions: 4° C. for 4 h, Taxol 10 μM
Description: All experiments were carried out under dim red light. Rat retina explants were removed and cut into smaller pieces in hibernate-medium, and divided into different treatment groups for pre-incubation with drugs promoting microtubule stability or a DMSO vehicle control at room temperature for 30 minutes. The cold-exposed groups were incubated in the refrigerator, while the fresh control samples were incubated on the bench in dark at room temperature. […] After 4- or 24-hour incubation, the cold-exposed retinal explants were placed on the bench for 10-15 minutes, and washed twice with fresh hibernate-medium. Retinal explants from all groups were then transferred to oxygenated (95% O2/5% CO2) bicarbonate-buffered AMES medium at room temperature. The sclera and RPE were removed prior to flat mounting the neural retina with the ganglion cell (RGC)-side facing down onto the MEA.
During MEA recording, the neural retinas were perfused with 95% O2/5% CO2-balanced AMES perfusion at 37° C. to measure the spontaneous firing activity of the rat RGCs over the course of 15 minutes. […] For MEA data processing and analyses, the firing spikes of RGCs were first filtered and recorded in MC Rack with a high-pass filter set at 200 Hz, a low-pass filter set at 3000 Hz, and the automatic standard deviation for spike detection threshold was set at −6. […]

## CC(C)C[C@@H](C=O)NC(=O)[C@H](CC(C)C)NC(=O)[C@H](CC(C)C)NC(=O)OCc1ccccc1 [MG-132] (Cbz-Leu-Leu-Leu-aldehyde)
Human iPSC-neurons [1]
  protein aggregates along microtubule processes: did not show any further increase in aggregation

## O=C1O[C@H]([C@@H](O)CO)C(O)=C1O [vitamin C, ascorbic acid]
Human iPSC-neurons [2]
  LMP (number of cells containing diffuse Magic Red): alleviated LMP

## CC(=O)O[C@H]1C(=O)[C@@]2(C)[C@H]([C@H](OC(=O)c3ccccc3)[C@]3(O)C[C@H](OC(=O)[C@H](O)[C@@H](NC(=O)c4ccccc4)c4ccccc4)C(C)=C1C3(C)C)[C@]1(OC(C)=O)CO[C@@H]1C[C@@H]2O [Taxol]
Human iPSC-neurons [3]; human iPSC-neurons at 4° C., 10 μM (FIG. 6B)
  preservation of microtubules in cold: preserved microtubules in cold
Human iPSC-neurons [3]; human iPSC-neurons, 16-h cold exposure, 0.1 μM
  protection of neuronal microtubules, low dose: did not protect
[4]
  spontaneous RGC activity / firing rate distributions (MEA): did not preserve RGC activity

## CCOC(=O)c1ccc(N2NC(=O)/C(=C/c3ccc([N+](=O)[O-])o3)C2=O)cc1 [PYR-41]
Human iPSC-neurons [3]; human iPSC-neurons, 4-h incubation at 4° C.
  microtubule morphology after pre-treatment with ubiquitination inhibitor: did not improve microtubule morphology
